Drawing on ChEMBL document CHEMBL3638544, “Phenalkylamine derivatives, pharmaceutical compositions containing them, and their use in therapy” (2015), this text covers Ki for one compound.

The structures appear in SMILES notation.

The target of the assay is T1, Sodium- and chloride-dependent glycine transporter 1 (Homo sapiens, UniProt P48067).
T1 sequence (P48067 whole entry): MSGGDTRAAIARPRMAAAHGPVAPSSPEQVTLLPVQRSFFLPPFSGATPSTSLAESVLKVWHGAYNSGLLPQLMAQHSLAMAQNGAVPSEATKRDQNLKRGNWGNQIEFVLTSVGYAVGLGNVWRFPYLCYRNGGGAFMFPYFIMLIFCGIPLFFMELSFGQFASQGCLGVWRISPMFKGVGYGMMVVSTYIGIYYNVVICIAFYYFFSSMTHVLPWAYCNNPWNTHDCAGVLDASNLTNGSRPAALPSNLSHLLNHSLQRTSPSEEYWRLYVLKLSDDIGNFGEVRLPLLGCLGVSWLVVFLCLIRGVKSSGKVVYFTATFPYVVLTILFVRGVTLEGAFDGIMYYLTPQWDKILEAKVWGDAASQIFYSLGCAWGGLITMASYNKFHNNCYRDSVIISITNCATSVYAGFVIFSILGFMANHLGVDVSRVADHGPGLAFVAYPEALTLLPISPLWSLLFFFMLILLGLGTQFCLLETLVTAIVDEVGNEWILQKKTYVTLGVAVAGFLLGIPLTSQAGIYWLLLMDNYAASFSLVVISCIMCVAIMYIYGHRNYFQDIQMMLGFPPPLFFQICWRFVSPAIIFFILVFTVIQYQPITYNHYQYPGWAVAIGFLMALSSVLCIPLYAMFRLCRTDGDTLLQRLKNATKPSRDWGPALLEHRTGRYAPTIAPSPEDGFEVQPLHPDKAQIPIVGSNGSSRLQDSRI
As to the kind of experiment: Radioligand Binding Assay: Radioligand binding to human GlyT1c transporter-expressing membranes was determined as described in Mezler et al., Molecular Pharmacology 74:1705-1715, 2008.

In turn, `NCC(Cc1ccccc1)c1ccc2c(c1)CN(S(=O)(=O)CC1CC1)CC2` (stereo unspecified) returned a Ki below 10 µM.
